The source of these data is US10869931B2, “Polyethylene glycol-modified angiogenesis inhibitor HM-1 and application thereof” (NANJING ANJI BIOLOGICAL TECHNOLOGY CO.,LTD, priority 2016, dated 2020).

Assay [1] relates to Colorectal cancer tumor cells. The assay is described as follows: MTT proliferation inhibition, colorectal cancer cells. Format: cell-based, human. Further details: concentration or dose not given beside the values. Conditions: 48 h. In outline: (§1)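 Tumour cells plated at 2×10^4 cells/mL, attached overnight, then exposed to dilutions of mPEG-HM-1 for 48 h at 37 °C, 5% CO2. MTT added 4 h, formazan dissolved in DMSO, absorbance 570/630 nm; growth inhibition = 1 − treated/untreated, three independent repeats, mean±SD.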

For assay [2], the system named is Ovarian cancer tumor cells. In words: MTT proliferation inhibition, ovarian cancer cells. The format is cell-based, human. More on the design: concentration or dose not given beside the values. Particulars: 48 h. An outline of the steps: as §1
A further assay deals with Hemangioma tumor cells. The assay is described as follows: MTT proliferation inhibition, hemangioma cells. The format is cell-based, human. More on the design: concentration or dose not given beside the values. Particulars: 48 h. An outline of the steps: as §1
For another assay, the system named is mouse spleen lymphocytes. In words: ConA-stimulated mouse spleen lymphocyte proliferation (MTT). Format: cell-based. Conditions: ConA 5 μg/mL, 48 h. An outline of the steps:
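Spleen cells, red cells lysed with Tris-NH4Cl, plated at 5×10^6/mL in RPMI 1640 with 10% calf serum alongside blank, ConA and Dex (0.02 mg/mL) groups. After 48 h at 37° C., MTT added for 4 h, formazan dissolved in DMSO, OD read at 570 nm, 5 replicates.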

Assay [3] relates to corneal neovascularization in BALB/c mice. In words: Alkali-burn corneal neovascularization in BALB/c mice (CD31 microvessel density). Particulars: day 14 after alkali burn, intravitreal once a day for 1 week. Format: in vivo, mouse. An outline of the steps: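 Mice received mPEG-HM-1 or saline by intravitreal injection once daily for 1 week after corneal alkali burn, with slit-lamp observation at 1, 7 and 14 d. At day 14, 8 μm frozen corneal sections were stained with anti-CD31, and microvessels per unit corneal area were counted; mean±SD of 3 independent tests, t test.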

The test system of assay [4] is choroidal neovascularization in BN rats. In words: Laser-induced choroidal neovascularization in BN rats (FFA). Format: in vivo, rat. Conditions: 200 μg intravitreally once daily for 1 week (Table 53). In outline:
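Male BN rats (6–8 weeks) received 8 laser photocoagulation spots per eye around the optic disc (647.1 nm, 350 mW, 50 μm, 0.05 s). Confirmed models, 5 per group, were given saline or PEG-modified HM-1 intravitreally once daily for 1 week. FFA was done 3, 7, 14 and 28 days after dosing.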

Marks after values point to notes of the source that are not given here. Where no end group is shown, it is not given here.

Regarding “mPEG-bALD40k-Arg-Gly-Ala-Asp-Arg-Ala-Gly-Gly-Gly-Gly-Arg-Gly-Asp ({mPEG‑bALD 40 kDa}-RGADRAGGGGRGD) [mPEG-bALD40k-HM-1]”, the results for the “rate of growth inhibition” value (in assay [1]; in assay [2]; in the assay on Hemangioma tumor cells) were 66.90 ± 16.27%, 72.66 ± 19.03% and 48.69 ± 12.72%, respectively. Also, the “A570 nm/A630 nm” value in the assay with mouse spleen lymphocytes (40 μg/mL) worked out at 0.6191 ± 0.0986; in the assay on mouse spleen lymphocytes (80 μg/mL), 0.5089 ± 0.1230; in the assay on mouse spleen lymphocytes (160 μg/mL), 0.4848 ± 0.1146. Also, the “Inhibition Rate of spleen lymphocyte proliferation” value in the assay on mouse spleen lymphocytes (40 μg/mL) is listed as 10.77%; in the assay on mouse spleen lymphocytes (80 μg/mL), 26.65%; with mouse spleen lymphocytes (160 μg/mL), 30.12%. In assay [3] (corneal microvessel density vs control), this substance returned an Inhibition rate of 45.27%. Moreover, the MVD in assay [3] (microvessel density (CD31) of cornea) is given as 36.52 ± 6.537**. Besides, the “CNV Incidence rate” value in assay [4] (Day 3 after administration) was 52.22%; in assay [4] (Day 7), 50.81%; in assay [4] (Day 14), 47.10%; in assay [4] (Day 28) it was 42.03%. In addition, the “leakage Spots #” value in assay [4] (Day 3 after administration, total spots 290-296 by table) stood at 153; in assay [4] (Day 7, total spots 182-188 by table), 94; in assay [4] (Day 14, total spots 132-138 by table), 65; in assay [4] (Day 28, total spots 67-71 by table), 29.
